The values that follow come from patent US11517568B2, “Compounds and methods for treating nematode infections” (The Governing Council of The University of Toronto, priority 2018, dated 2022).

The test system of data set [1] is L3 animals. Put plainly: Abnormal locomotory behaviour of L3 animals on solid agar (extended SAR). Format: in vivo, Caenorhabditis elegans. Conditions: for pest or weed control at 3.75 µM / pest or weed control at 15 µM / pest or weed control at 60 µM: Caenorhabditis elegans. The procedure:
20 animals were scored after either 1, 6 or 24 hours of exposure to drug (as indicated) per replicate. […] Data are reported as the mean % of animals with abnormal phenotype over 4 independent replicates.

The test system of data set [2] is fish. The experiment in a line: Dose-response analysis in fish, cardiac defects. It counts as in vivo.
Data set [3] relates to wild type fourth-stage C. elegans larvae (L4s). The experiment in a line: Locomotory defects (coiled and/or paralysis) in wild type fourth-stage C. elegans larvae on solid substrate. Particulars: for Activity (%): percent of animals that show coiled and/or paralysis: 60 μM, after 60 min on solid substrate, L4 C. elegans. Format: in vivo, Caenorhabditis elegans. The method, then:
A preliminary first round of SAR analyses using analogs of exemplary compound Ia was performed and the analogs' ability to induce locomotory defects in wild type fourth-stage C. elegans larvae (L4s) was tested.
If phenotype is observed, a dose-response analysis is performed.

For data set [4], the system named is C. elegans. The experiment in a line: Suppression of aldicarb-induced paralysis in C. elegans. Particulars: Caenorhabditis elegans. Format: in vivo. The procedure: Whether exemplary compound Ia can suppress the paralysis that is induced by aldicarb was tested. Aldicarb inhibits acetylcholinesterase, which normally catabolizes ACh at the synaptic cleft. […] Aldicarb treatment therefore results in excess ACh and paralyzes the animal due to excess muscle contraction. If exemplary compound Ia inhibits UNC-17 and results in lower levels of ACh at the synaptic cleft, then exemplary compound Ia should reduce aldicarb-induced paralysis.

Data set [5] relates to HEK293 cells. The experiment in a line: HEK293 cell proliferation, Celltiter Blue Cell Viability Assay. It counts as cell-based. Particulars: dose-response, 48 hours, triplicates. The method, then:
A cytotoxic formulation was used as positive control. Experiments were performed in triplicates on different days. […] Error bars indicate standard deviation.

Data set [6] deals with wild type C. elegans. The experiment in a line: Manual monitoring of locomotion phenotype of wild type C. elegans on solid agar containing the small molecule. It counts as in vivo, Caenorhabditis elegans. Particulars: for locomotory phenotype induced: solid agar substrate. An excerpt:
The ability of the 64 Egl hits to modulate the normal sinusoidal locomotion of wild type C. elegans was then examined. The animal's behaviour over the course of several hours was manually monitored while the animal moved atop a solid agar substrate containing the small molecule. Many different genes govern the sinusoidal locomotion of wild type C. elegans, but their mutation can lead to qualitatively distinct locomotory phenotypes.

Data set [7] has as its system UNC-17 (VAChT), unc-17 mutant strains. Format: in vivo, Caenorhabditis elegans. Conditions: p=0.001.
Data set [8] relates to C. elegans. Put plainly: Forward genetic screens for mutants resisting early larval lethal effects. It counts as in vivo, Caenorhabditis elegans. Conditions: over 200,000 F1 and over 100,000 F2 animals screened. The method, then:
Forward genetic screens were performed for mutants that can resist the early larval lethal effects of compound Ic and compound Id. Over 200,000 F1 animals and over 100,000 F2 animals from randomly mutagenized parents/grandparents were screened.

[9] abbreviates: 1 h, read-out: % any phene 1 h (conc.) 3.75.
Setting [10] is: 1 h, read-out: % any phene 1 h (conc.) 15.
Where [11] appears, read: 1 h, read-out: % any phene 1 h (conc.) 60.
[12] abbreviates: 6 h, read-out: % any phene 6 h (conc.) 3.75.
Setting [13] is: 6 h, read-out: % any phene 6 h (conc.) 15.
Where [14] appears, read: 6 h, read-out: % any phene 6 h (conc.) 60.
[15] abbreviates: 24 h, read-out: % any phene 24 h (conc.) 3.75.
The mark [16] stands for this setting: 24 h, read-out: % any phene 24 h (conc.) 15.
[17] abbreviates: 24 h, read-out: % any phene 24 h (conc.) 60.

Read-outs that look alike come from different tables or passages of the source.

Turning to `O=[N+]([O-])c1ccc(N2CCN(CC3CCCCC3)CC2)cc1` [Compound Ia], the pest or weed control at 3.75 µM in data set [1] (setting [9]) amounted to 42.5%; in data set [1] (setting [12]), 22.5%; in data set [1] (setting [15]) it was 0%. For the same molecule, the pest or weed control at 15 µM in data set [1] (setting [10]) turned out to be 91%; in data set [1] (setting [13]), 64.2%; in data set [1] (setting [16]), 34.2%. Further, the pest or weed control at 60 µM in data set [1] (setting [11]) amounted to 100%; in data set [1] (setting [14]) it was 100%; in data set [1] (setting [17]) it was 80%. In addition, the “cardiac defects in fish” value in data set [2] is on record as “weakest cardiac defects”. For the same molecule, in data set [3], the “Activity (%): percent of animals that show coiled and/or paralysis” value (“Activity (%): percent” for short) worked out at 90% +/− 5.4. Further, the EC50 came to 12.8 µM in data set [3] (Caenorhabditis elegans, read-out: EC50 (coiled and/or paralysis, dose-response)) and 4.81 µM in data set [4]. Moreover, the “effect on HEK293 cell proliferation” value in data set [5] is listed as “no effect”. The “potency for inducing locomotory defects in worms relative to vesamicol” value in data set [6] (compared with vesamicol) was “more than 30 times”.
`O[C@@H]1CCCC[C@H]1N1CCC(c2ccccc2)CC1` (racemic) [Vesamicol, reference compound]: the pest or weed control at 3.75 µM in data set [1] (setting [9]), in data set [1] (setting [12]) and in data set [1] (setting [15]) was 0% in each case. The pest or weed control at 15 µM worked out at 0% in data set [1] (setting [10]), 0.8% in data set [1] (setting [13]) and 0% in data set [1] (setting [16]). Also, the pest or weed control at 60 µM in data set [1] (setting [11]) stood at 11.7%; in data set [1] (setting [14]) it was 1.7%; in data set [1] (setting [17]), 0%. Besides, the “Activity (%): percent” value in data set [3] amounted to 6% +/− 0.1. Moreover, the locomotory phenotype induced result in data set [6] was “jerky-unc and coiling, but only at concentrations close to its limit of solubility”. Besides, the “sensitivity of unc-17(md414) (C370Y) mutant” value in data set [7] is reported as “partially resistant”.
`O=[N+]([O-])c1ccc(N2CCN(CC3CC4C=CC3C4)CC2)cc1` (stereo not drawn) [Compound Id]: in data set [1] (3.75 uM, 1 h exposure, L3, mean of 4 replicates), the “% any phene 1 h (conc.) 3.75” value amounted to 19.2%. Also, the “% any phene 6 h (conc.) 3.75” value in data set [1] (3.75 uM, 6 h exposure, L3, mean of 4 replicates) turned out to be 5.8%. The “% any phene 24 h (conc.) 3.75” value in data set [1] (3.75 uM, 24 h exposure, L3, mean of 4 replicates) stood at 0.0%. Besides, the “% any phene 1 h (conc.) 15” value in data set [1] (15 uM, 1 h exposure, L3, mean of 4 replicates) came out at 65.5%. Moreover, the “% any phene 6 h (conc.) 15” value in data set [1] (15 uM, 6 h exposure, L3, mean of 4 replicates) was 36.7%. For the same molecule, the “% any phene 24 h (conc.) 15” value in data set [1] (15 uM, 24 h exposure, L3, mean of 4 replicates) is recorded as 45.0%. The “% any phene 1 h (conc.) 60” value in data set [1] (60 uM, 1 h exposure, L3, mean of 4 replicates) was 95.8%. Moreover, in data set [1] (60 uM, 6 h exposure, L3, mean of 4 replicates), the “% any phene 6 h (conc.) 60” value is recorded as 100.0%. Moreover, the “% any phene 24 h (conc.) 60” value in data set [1] (60 uM, 24 h exposure, L3, mean of 4 replicates) was found to be 95.8%. The “Activity (%): percent” value in data set [3] worked out at 0.00%. The “mutants resisting early larval lethal effects” value in data set [8] is “No mutants that could resist the lethal effects”. The locomotory phenotype induced entry in data set [6] is listed as “‘jerky-unc’ phenotype”.
